The text below walks through data of patent US20100303758A1, “Novel Glucocorticoid Receptor Agonists” (priority 2009, published 2010).

Assay [1] in a line: Inhibition of TNF-α release from LPS stimulated isolated human PBMC. The assay is classed as cell-based. The conditions noted are these: Homo sapiens, PBMC, read-out: IC50 (nM) for inhibition of TNF-α release. How it is done: The anti-inflammatory activity of the compounds against human leukocytes in vitro was also evaluated by determining inhibition of tumour necrosis factor-α (TNF-α) release from lipopolysaccharide (LPS) stimulated isolated human peripheral mononuclear cells (PBMC).
Peripheral venous blood from healthy, non-medicated donors was collected using ethylenediaminetetraacetic acid (EDTA) as the anti-coagulant. For PBMC preparation, samples of blood were diluted 1:1 with sterile phosphate buffered saline and then separated using ACCUSPIN™ System-Histopaque®-1077 tubes (Sigma-Aldrich, St Louis, Mo.), centrifuged at 400 g for 35 minutes. Buffy coat cells were removed into PBS, centrifuged at 200 g for 10 minutes and re-suspended in PBMC assay buffer (Hanks Balanced Salt Solution, 0.28% [w/v] 4-[2-hydroxyethyl]-1-piperazineethanesulfonic acid [HEPES], 0.01% [w/v] low-endotoxin bovine serum albumin [BSA]. A differential white cell count was performed and PBMC's diluted to 1×10^6 lymphocytes per ml in PBMC assay buffer.
Test compounds were dissolved in DMSO and diluted in PBMC assay buffer (final DMSO concentration 1%) to cover an appropriate concentration range, e.g 0.001 nM to 10000 nM. Samples of test compound solution or vehicle (20 μl) were added into 96-well tissue culture treated plates (Corning) and PBMC (160 μl) added to each well. The assay mixtures were incubated at 37° C. for 1 h in a humidified incubator containing an atmosphere of air supplemented with 5% CO2 before adding LPS (20 μl of 100 ng/ml for PBMC). Plates were returned to the incubator for a further 18 hours, and then centrifuged before recovery of samples of supernatant. TNF-α in the samples was determined using an enzyme-linked immunosorbent assay (ELISA) (Invitrogen kit no CHC-1754; Invitrogen Carlsbad, Calif.) and following the manufacturers instructions. Dose response curves were constructed from which IC50 values were calculated.

A further assay concerns the target T1, human GR (Homo sapiens, UniProt P04150).
T1 construct: SW1353 naturally expresses human GR; endogenous in cells; host or cells: human chondrosarcoma cell-line SW1353 stably transfected with an MMTV-luciferase reporter construct
T1 sequence (P04150 1-777): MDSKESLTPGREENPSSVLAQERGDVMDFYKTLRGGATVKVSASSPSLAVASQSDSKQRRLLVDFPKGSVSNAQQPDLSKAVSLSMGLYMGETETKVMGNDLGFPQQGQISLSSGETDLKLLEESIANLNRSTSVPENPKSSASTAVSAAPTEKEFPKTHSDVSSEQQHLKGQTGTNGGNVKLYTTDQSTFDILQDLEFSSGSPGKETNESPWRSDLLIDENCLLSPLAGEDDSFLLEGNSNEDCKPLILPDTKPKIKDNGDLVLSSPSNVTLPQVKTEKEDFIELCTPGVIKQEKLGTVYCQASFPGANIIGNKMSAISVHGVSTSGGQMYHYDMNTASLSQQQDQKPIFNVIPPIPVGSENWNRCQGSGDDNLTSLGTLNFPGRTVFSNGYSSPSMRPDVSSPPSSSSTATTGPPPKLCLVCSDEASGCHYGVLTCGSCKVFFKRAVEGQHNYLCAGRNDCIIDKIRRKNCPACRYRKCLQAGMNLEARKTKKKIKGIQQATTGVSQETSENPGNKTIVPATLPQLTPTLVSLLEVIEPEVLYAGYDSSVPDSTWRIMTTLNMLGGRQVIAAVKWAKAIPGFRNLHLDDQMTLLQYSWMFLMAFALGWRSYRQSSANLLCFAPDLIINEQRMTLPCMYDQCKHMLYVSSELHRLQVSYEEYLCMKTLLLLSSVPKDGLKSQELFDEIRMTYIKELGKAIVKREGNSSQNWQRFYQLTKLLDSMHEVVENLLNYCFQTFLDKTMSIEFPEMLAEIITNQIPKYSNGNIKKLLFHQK
The assay is described as follows: GR agonist potency, MMTV-luciferase reporter in SW1353 cells. It counts as cell-based. The conditions noted are these: human chondrosarcoma cell-line SW1353 stably transfected with MMTV-luciferase reporter; approx. 18 hours; data as percentage of 1 μM dexamethasone positive control. How it is done:
Glucococorticoid receptor (GR) agonist potency was determined in the human chondrosarcoma cell-line SW1353 stably transfected with an MMTV-luciferase reporter construct. SW1353 naturally expresses human GR, which on binding a glucocorticoid agonist activates glucocorticoid response elements within the MMTV promoter, driving expression of the luciferase gene.
Frozen SW1353 cells were revived in DMEM medium, without sodium pyruvate or phenol red, supplemented with 2 mM L-glutamine, 1 μg/ml insulin, 2 mg/ml lactalbumin hydrosylate and 0.5 μg/ml ascorbate. Cells were seeded at approximately 5000 cells/well (35 μl/well) in 384-well clear bottom, tissue culture treated plates. Steroid dose-response dilutions were prepared in steroid diluent (PBS containing 2.5% (v/v) DMSO and 0.05% (v/v) pluronic detergent) and 5 μl added to each well. The volume was made up to 50 μl per well with steroid diluent. Positive control wells contained 1 μM dexamethasone. Plates were incubated for approximately 18 hours at 37° C. in an air/5% CO2 atmosphere in a humidified incubator before Britelite reagent (10 μl; Perkin-Elmer) was added to each well. Each plate was incubated for 2 minutes in the dark and luminescence quantified using a LJL Biosystems Analyst luminometer. Data for test compounds (expressed as percentage of the dexamethasone positive control) were used to construct dose response curves from which EC50 values were estimated.

As to `C[C@]12C=CC(=O)C=C1CC[C@H]1[C@@H]3CC[C@](OC(=O)c4ccc(Oc5ccc(O)c(Cl)c5)cc4)(C(=O)SCF)[C@@]3(C)C[C@H](O)[C@@]12F` [Example 26, (11beta, 17alpha)-9-fluoro-17-{[(fluoromethyl)thio]carbonyl}-11-hydroxy-3-oxoandrosta-1,4-dien-17-y1 4-(3-chloro-4-hydroxyphenoxy)-benzoate], the IC50 in assay [1] stood at 0.177 nM. The molecule also showed an EC50 on human GR of 42.6 nM.

Consider `C[C@]12C=CC(=O)C=C1CC[C@H]1[C@@H]3CC[C@](OC(=O)c4ccc(Sc5ccc(O)c(Cl)c5)cc4)(C(=O)SCF)[C@@]3(C)C[C@H](O)[C@@]12F` [Example 27, (11beta,17alpha)-9-fluoro-17-[((fluoromethyl)thio]carbonyl)-11-hydroxy-3-oxoandrosta-1,4-dien-17-yl 4-[(3-chloro-4-hydroxyphenyl)thio]benzoate], for which the IC50 in assay [1] is 0.326 nM. This molecule displayed an EC50 on human GR of 43.3 nM.

As to `C[C@]12C=CC(=O)C=C1CC[C@H]1[C@@H]3CC[C@](OC(=O)c4ccc(Sc5ccccc5)cc4)(C(=O)SCC#N)[C@@]3(C)C[C@H](O)[C@@]12F` [Example 28, (11beta,17alpha)-17-{[(cyanomethyl)thio]carbonyl}-9-fluoro-11-hydroxy-3-oxoandrosta-1,4-dien-17-yl 4-(phenylthio)benzoate], the IC50 in assay [1] was 0.231 nM. Besides, it took 37.3 nM to reach a half-maximal effect at human GR (EC50).

As for `C[C@]12C=CC(=O)C=C1CC[C@H]1[C@@H]3CC[C@](OC(=O)c4ccc(Oc5ccccc5)cc4)(C(=O)SCC#N)[C@@]3(C)C[C@H](O)[C@@]12F` [Example 29, (11beta,17alpha)-17-{[(cyanomethyl)-thio]carbonyl}-9-fluoro-11-hydroxy-3-oxoandrosta-1,4-dien-17-yl 4-phenoxybenzoate], the IC50 in assay [1] was determined as 0.156 nM. At human GR, a half-maximal response (EC50) required 78.4 nM.

As to `C[C@]12C=CC(=O)C=C1CC[C@H]1[C@@H]3CC[C@](OC(=O)c4ccc(Sc5ccccc5)cc4)(C(=O)SCCl)[C@@]3(C)C[C@H](O)[C@@]12F` [Example 30, (11beta,17alpha)-17-{[(chloromethyl)thio]carbonyl}-9-fluoro-11-hydroxy-3-oxoandrosta-1,4-dien-17-yl 4-(phenylthio)benzoate], the IC50 in assay [1] was found to be 0.256 nM. Besides, the EC50 on human GR stood at 20.6 nM.

As for `C[C@]12C=CC(=O)C=C1[C@@H](F)C[C@H]1[C@@H]3CC[C@](OC(=O)c4ccc(OCc5ccccc5)cc4)(C(=O)CO)[C@@]3(C)C[C@H](O)[C@@]12F` [Example 31, (6alpha,11beta)-6,9-difluoro-11,21-dihydroxy-3,20-dioxopregna-1,4-dien-17-yl 4-(benzyloxy)benzoate], the IC50 in assay [1] is 0.152 nM. Moreover, at human GR, the EC50 stood at 102 nM.

Consider `C[C@]12C=CC(=O)C=C1CC[C@H]1[C@@H]3CC[C@](OC(=O)c4ccc(OCc5ccccc5)cc4)(C(=O)CO)[C@@]3(C)C[C@H](O)[C@@]12F` [Example 32, (11beta)-9-fluoro-11,21-dihydroxy-3,20-dioxopregna-1,4-dien-17-yl 4-(benzyloxy)benzoate], for which the IC50 in assay [1] turned out to be 0.506 nM. For the same molecule, the EC50 at human GR is 36 nM.

As for `C[C@]12C=CC(=O)C=C1CC[C@H]1[C@@H]3CC[C@](OC(=O)c4ccc(Oc5ccccc5)c(O)c4)(C(=O)OCC#N)[C@@]3(C)C[C@H](O)[C@@]12F` [Example 33, cyanomethyl(11beta,17alpha)-9-fluoro-11-hydroxy-17-[(3-hydroxy-4-phenoxybenzoyl)oxy]-3-oxoandrosta-1,4-diene-17-carboxylate], in assay [1], the IC50 was determined as 0.212 nM. At human GR, this molecule showed a half-maximal effective concentration (EC50) of 68.3 nM.

Take `C[C@]12C=CC(=O)C=C1CC[C@H]1[C@@H]3CC[C@](OC(=O)c4ccc(Sc5ccccc5O)cc4)(C(=O)OCC#N)[C@@]3(C)C[C@H](O)[C@@]12F` [Example 35, cyanomethyl (11beta,17alpha)-9-fluoro-11-hydroxy-17-({4-[(2-hydroxyphenyl)thio]benzoyl}oxy)-3-oxoandrosta-1,4-diene-17-carboxylate]: the IC50 in assay [1] was found to be 0.099 nM. The same molecule registered an EC50 on human GR of 75.2 nM.

As for `C[C@]12C=CC(=O)C=C1CC[C@H]1[C@@H]3CC[C@](OC(=O)c4ccc(Oc5ccc(O)nc5)cc4)(C(=O)OCC#N)[C@@]3(C)C[C@H](O)[C@@]12F` [Example 36, cyanomethyl (11beta,17alpha)-9-fluoro-11-hydroxy-17-({4-[(6-hydroxypyridin-3-yl)oxy]benzoyl}-oxy)-3-oxoandrosta-1,4-diene-17-carboxylate], the IC50 in assay [1] is 0.167 nM. The molecule further had an EC50 on human GR of 16.3 nM.

On to `C[C@]12C=CC(=O)C=C1CC[C@H]1[C@@H]3CC[C@](OC(=O)c4ccc(Oc5ccc(O)c(Cl)c5)cc4)(C(=O)OCC#N)[C@@]3(C)C[C@H](O)[C@@]12F` [Example 37, cyanomethyl (11beta,17alpha)-17-{[4-(3-chloro-4-hydroxybhenoxy)-benzoyl]oxy}-9-fluoro-11-hydroxy-3-oxoandrosta-1,4-diene-17-carboxylate], for which, in assay [1], the IC50 is 0.201 nM. At human GR, the EC50 was 39.7 nM.

With `C[C@]12C=CC(=O)C=C1CC[C@H]1[C@@H]3CC[C@](OC(=O)c4ccc(Sc5ccc(Cl)c(O)c5)cc4)(C(=O)SCC#N)[C@@]3(C)C[C@H](O)[C@@]12F` [Example 38, (11beta,17alpha)-17-{[(cyanomethyl)thio]carbonyl}-9-fluoro-11-hydroxy-3-oxoandrosta-1,4-dien-17-yl 4-[(4-chloro-3-hydroxyphenyl)thio]benzoate], the IC50 in assay [1] was determined as 0.755 nM. Further, a half-maximal effect at human GR (EC50) was put at 54.7 nM.

In the case of `C[C@]12C=CC(=O)C=C1CC[C@H]1[C@@H]3CC[C@](OC(=O)c4ccc(Sc5ccc(Cl)c(O)c5)cc4)(C(=O)OCC#N)[C@@]3(C)C[C@H](O)[C@@]12F` [Example 39, cyanomethyl(11beta,17alpha)-17-({4-[(4-chloro-3-hydroxyphenyl)thio]benzoyl}oxy)-9-fluoro-11-hydroxy-3-oxoandrosta-1,4-diene-17-carboxylate], the IC50 in assay [1] is 0.615 nM. In addition, at human GR, the EC50 was 44.1 nM.

Take `C[C@]12C=CC(=O)C=C1CC[C@H]1[C@@H]3CC[C@](OC(=O)c4ccc(Oc5ccc(Cl)c(O)c5)cc4)(C(=O)SCF)[C@@]3(C)C[C@H](O)[C@@]12F` [Example 40, (11beta,17alpha)-9-fluoro-17-{[(fluoromethyl)thio]carbonyl}-11-hydroxy-3-oxoandrosta-1,4-dien-17-yl 4-(4-chloro-3-hydroxyphenoxy)benzoate]: the IC50 in assay [1] worked out at 0.053 nM. On human GR, this molecule returned an EC50 of 31.2 nM.

One may read the IC50 as the point on the concentration scale where inhibition reaches its midpoint. Usually EC50 stands for the concentration giving half of the maximal effect. A low value points to greater potency.
